According to patent US20110190249A1, “THERAPEUTIC METHODS AND USES OF SAPOGENINS AND THEIR DERIVATIVES” (PHYTOPHARM PLC, priority 2002, published 2011):

How the values were obtained:
BDNF = BDNF levels in aged rats; assay type: in vivo, rat; settings: aged rats treated 3 months; aged untreated 1.205±0.219, young 1.647±0.277
Experimental: (§1) Aged Sprague-Dawley rats aged were divided into different groups, one control and groups treated for 2-3 months with either sarsasapogenin, episarsasapogenin cathylate or smilagenin (18 mg kg^−1 day^−1, n=10). A control group (n=14) of untreated young rats was also included in the study. The daily dose of drug was mixed in a minimum amount of food and was administered every morning separately to each rat.

[1] = system: rat mesencephalic dopaminergic neurones; assay: Pre-treatment of dopaminergic neurones before MPP+ exposure (neuronal survival); assay type: cell-based; settings: pre-treatment 30 nM; MPP+ 2 μM; MPP+ alone 55 ± 3
Excerpt: Smilagenin and sarsasapogenin prevent the neurodegeneration caused by exposure to the neurotoxin, 1-methyl-4-phenylpyridinium (MPP^+) in rat mesencephalic dopaminergic neurones; a model of Parkinson's disease in vitro.
Glial cell line-derived neurotrophic factor (GDNF) and brain-derived neurotrophic factor (BDNF), molecules that are involved in neuronal growth, were used as positive controls.

[2] = system: rat primary cortical neurones; assay: Neurite outgrowth in rat primary cortical neurones; assay type: cell-based; settings: for Number of neurones displaying neurites, Mean ± s.e.m (%): control 47 ± 2; for Neurite length measured using optical micrometry, Mean ± s.e.m (%): control 100 ± 4
Excerpt: Neurodegenerative disorders are characterised by a progressive loss of neurones and degradation of neuronal processes (neurites). Agents that induce neurite outgrowth may promote the formation of new connections between neurones and ameliorate the symptoms of neurodegenerative conditions (Katzman et al, Faseb J., 5, 278-286, 1991).

[3] = system: rat mesencephalic dopaminergic neurones; assay: Treatment of dopaminergic neurones after MPP+ exposure (survival, neurites); assay type: cell-based; settings: MPP+ 2 μM
Excerpt: Smilagenin and sarsasapogenin also reverse the neurodegeneration caused by exposure to the neurotoxin 1-methyl-4-phenylpyridinium (MPP^+) in rat mesencephalic dopaminergic neurones; a model of Parkinson's disease in vitro.
Glial cell line-derived neurotrophic factor (GDNF) and brain-derived neurotrophic factor (BDNF), molecules that are involved in neuronal growth, and 17β-oestradiol were used as positive controls. Treatment with smilagenin and sarsasapogenin produced a significant increase in the neuronal survival compared to neurones exposed to MPP^+ alone (Table 8).
Exposure to MPP^+ caused not only a significant decrease in dopaminergic number but also in the percentage of neurites.

[4] = system: rat primary cortical neurones; assay: Reversal of glutamate-induced neurodegeneration (LDH), treatment after glutamate exposure; assay type: cell-based; settings: LDH after 24 h, control = 100
Experimental: (§2) Neuronal cell survival was evaluated by measuring lactate dehydrogenase (LDH) activity released in the media 24 h after test compound treatment or glutamate+test compound exposure, using the CytoTox 96 non-radioactive kit and quantitated by measuring wavelength absorbance at 450 nm.
As above mentioned, exposure of rat primary cortical cultures to glutamate (100 μM; 10 min) caused an increase in lactate dehydrogenase (LDH) activity measured after 24 h, indicating a significant neurodegeneration.

caspase-3 = assay: Glutamate induced caspase 3 activity in cortical neurones; assay type: cell-based, rat; settings: 300 nM for 6 h after glutamate 100 microM 10 min; glutamate alone 131
Experimental: The objective of this study was to examine the anti-apoptotic effect of smilagenin on the caspase-3 activity, a marker of apoptosis, in rat primary cortical cultures exposed to glutamate
Rat cortical neurones were cultured for 6 days. At day 6, glutamate (100 microM, 10 min) was added. Then the cultures were washed and medium was replaced with fresh medium containing smilagenin or vehicle control (DMSO, 0.25%) for 6 h. After 6 h treatment, apoptosis was evaluated by measuring caspase 3, activity. Caspase 3 activity was detected by the cleavage of p-nitroaniline from a colorimetric caspase-3 substrate, acetyl-Asp-Glu-Val-Asp p-nitroanilide. […] has a high absorbance at 405 nm. Relative caspase-3 activity was measured as optical density. In addition the relative activity of caspase-3 was standardised to protein concentration of the sample, which was also measured as an optical density (Du et al, J Neurochem., 69, 1382-1388, 1997; Sawada et al, Faseb J., 14, 1202-1214, 2000).

SOD-1 transgenic mice = assay: Survival and behaviour of SOD-1 mice (ALS model); assay type: in vivo; settings: SOD mouse
Excerpt: Amyotrophic lateral sclerosis (ALS) is a progressive fatal neurodegenerative disorder that causes motor neurone degeneration, […], paralysis and death. The cause of this disease is heterogeneous: mutations in the Cu/Zn superoxide dismutase (SOD-1) gene is responsible for some forms of human ALS. Animal models of this disease include the SOD-1 transgenic mice over-expressing SOD-1 gene and the progressive motor neuropathy (pmn, a model of Charcot-Marie-Tooth) mice.

aged Sprague-Dawley rats = assay: Y-maze learning and memory test in aged rats; assay type: in vivo, rat; settings: 18 mg kg−1 day−1 oral in food, 3 months
Experimental: as §1
A Y-maze apparatus was used for the learning and memory test. On the floor of each arm of the Y-maze is an array of copper rods to which electric current is applied whenever needed, with adjustable voltage. Each arm is 45 cm long and has a 15 W lamp at the end, which is turned on when needed. After 3 months drug administration, each rat was trained for 7 consecutive days, as follows. For each training session, the rat was put into one arm of the Y-maze, after two minutes rest, an electrical current was applied to the copper rods and the lamp of the clockwise arm was illuminated to indicate the non-stimulation area. If the rat went into that arm, one correct response was recorded, otherwise, one wrong response was recorded: This stimulation-response test was repeated 20 times each day, with a pause of 5 sec between each two consecutive tests. The number of correct responses following the twenty tests on the seventh day was used to express learning ability, (the higher the number the better the learning ability). The rats were then left resting for 30 days and the procedure was repeated once more. The number of correct responses of the 20 tests after the 30 day rest period was used to represent the memory ability

[5] = system: rat primary cortical neurones; assay: Prevention of glutamate-induced neurodegeneration (LDH release), pre-treatment; assay type: cell-based; settings: 30 nM, given 24 h before glutamate; LDH 24 h after glutamate; control = 100
Experimental: The objective of this study was to examine the effects of sarsasapogenin, episarsasapogenin cathylate, episarsasapogenin, epismilagenin and smilagenin on the survival of rat primary cortical neurones exposed to glutamate, which is known to induce neuro degeneration.
Rat cortical neurones were cultured for 10 days; at day 10 the medium was changed to a serum-free defined medium. On day 12, 24 hours before glutamate exposure, cultures were washed and medium was replaced with fresh medium containing positive control (β-oestradiol), test compounds (sarsasapogenin, episarsasapogenin cathylate, episarsasapogenin, epismilagenin and smilagenin) or vehicle control (DMSO, 0.25%) or diosgenin as negative control.
On day 13, cultures were exposed to glutamate. After the incubation period, the cultures were washed with and placed in fresh medium, supplemented with relevant compounds or vehicle to evaluate their protective effects, 24 h after glutamate exposure.
as §2

Compound: C[C@@H]1CC[C@@]2(OC1)O[C@H]1C[C@H]3[C@@H]4CC[C@@H]5C[C@@H](O)CC[C@]5(C)[C@H]4CC[C@]3(C)[C@H]1[C@@H]2C [smilagenin]
- BDNF levels (BDNF): 1.342±0.07 ng/g tissue
- Dopaminergic neurones after MPP+ exposure (survival), Mean ± s.e.m (%) [1]: 98 ± 4%
- Number of neurones displaying neurites, Mean ± s.e.m (%) ([2]; 0.3 pM): 63 ± 2%
- Neurite length measured using optical micrometry, Mean ± s.e.m (%) ([2]; 0.3 pM): 159 ± 5%
- Number of neurones displaying neurites, Mean ± s.e.m (%) ([2]; 3 pM): 63 ± 2%
- Neurite length measured using optical micrometry, Mean ± s.e.m (%) ([2]; 3 pM): 190 ± 8%
- Number of neurones displaying neurites, Mean ± s.e.m (%) ([2]; 30 pM): 66 ± 2%
- Neurite length measured using optical micrometry, Mean ± s.e.m (%) ([2]; 30 pM): 204 ± 6%
- Percentage of neurites in dopaminergic neurones after MPP+ exposure, Mean ± s.e.m (%) ([3]; 0.03 nM, control 41 ± 4, MPP+ alone 27 ± 5): 41 ± 4%
- Dopaminergic neurones after MPP+ exposure (survival), Mean ± s.e.m (%) ([3]; treatment 0.03 nM, MPP+ alone 76 ± 4): 111 ± 6%
- Cortical neurones previously exposed to glutamate, Mean ± s.e.m (%) ([4]; 3 nM after glutamate 100 μM 10 min): 109 ± 6%
- Cortical neurones previously exposed to glutamate, Mean ± s.e.m (%) ([4]; 30 nM after glutamate 100 μM 10 min): 104 ± 1%
- Caspase activity (% of control) (caspase-3): 105 % of control
- Behavioural deficits (SOD-1 transgenic mice; oral administration): improve the behavioural deficits
- Lifespan (survival) (SOD-1 transgenic mice; oral administration (FIG. 5)): increase the lifespan
- Learning and memory ability (Y-maze) (aged Sprague-Dawley rats): restored the learning and memory ability
- Prevention of glutamate-induced neurodegeneration, Mean ± s.e.m (%) [5]: 91 ± 4%
